Reference: article PMC7216583 (Parasites & Vectors, 2020)
Structures can show the parent of a compound that is named as a salt.

Key:
[1] = test system: Toxoplasma gondii RH-2F tachyzoites; experiment: microbe, parasite or virus in culture; details: 72 h, read-out: Parasite inhibition (%) mean, preliminary screen, mean
δ-opioid receptor = target: δ-opioid receptor; parameters: method as in library vendor description; details: agonist; ref library vendor description; cited from earlier work
CYP17 = test system: CYP17; parameters: method as in library vendor description; details: ref library vendor description; cited from earlier work
VEGFR2 = test system: VEGFR2; parameters: method as in library vendor description; details: ref library vendor description; cited from earlier work
VEGFR1 = test system: VEGFR1; parameters: method as in library vendor description; details: ref library vendor description; cited from earlier work
FGFR1 = test system: FGFR1; parameters: method as in library vendor description; details: ref library vendor description; cited from earlier work
Flk1 = test system: Flk1; parameters: method as in library vendor description; details: ref library vendor description; cited from earlier work
FKBP12 = test system: FKBP12; parameters: method as in library vendor description; details: ref library vendor description; read-out: IC50 mTOR inhibitor of FKBP12; cited from earlier work
F508del-CFTR = test system: F508del-CFTR; parameters: method as in library vendor description; details: potentiator; ref library vendor description; cited from earlier work
G551D-CFTR = test system: G551D-CFTR; parameters: method as in library vendor description; details: potentiator; ref library vendor description; cited from earlier work
DHFR = details: read-out: Ki DHFR; ref library vendor description; cited from earlier work
in vitro = details: human
SIRT1 = test system: SIRT1; parameters: method as in library vendor description; details: ref library vendor description; cited from earlier work
Bcl-2 = target: Bcl-2; parameters: method as in library vendor description; details: ref library vendor description; cited from earlier work
Bcl-xL = target: Bcl-xL; parameters: method as in library vendor description; details: recombinant; ref library vendor description; cited from earlier work
Mcl-1 = target: Mcl-1; parameters: method as in library vendor description; details: recombinant; ref library vendor description; cited from earlier work
Flt1 = test system: Flt1; parameters: method as in library vendor description; details: ref library vendor description; cited from earlier work
c-Kit = test system: c-Kit; parameters: method as in library vendor description; details: ref library vendor description; cited from earlier work
[2] = test system: human foreskin fibroblasts (HFFs); details: human, 72 h
Flt4 = test system: Flt4; parameters: method as in library vendor description; details: ref library vendor description; cited from earlier work
AXL = test system: AXL; parameters: method as in library vendor description; details: ref library vendor description; cited from earlier work
Ret = test system: Ret; parameters: method as in library vendor description; details: ref library vendor description; cited from earlier work
survivin = test system: survivin; parameters: method as in library vendor description; details: ref library vendor description; cited from earlier work

SMILES: CCN(CC)C(=O)c1ccc(C2=CC3(CCNCC3)Oc3cccc(O)c32)cc1 [ADL5859 HCl]
- inhibition of growth at 5 µM [1]: 1.1%
- Ki (δ-opioid receptor): 0.8 nM

SMILES: C[C@]12CC[C@H](O)CC1=CC[C@@H]1[C@H]2CC[C@]2(C)C(c3cccnc3)=CC[C@@H]12 [Abiraterone (CB-7598)]
- inhibition of growth at 5 µM [1]: 11.2%
- IC50 (CYP17): 2 nM

SMILES: Cc1cc2c(F)c(Oc3ncnn4cc(OC[C@@H](C)OC(=O)[C@H](C)N)c(C)c34)ccc2[nH]1 [Brivanib alaninate (BMS-582664)]
- inhibition of growth at 5 µM [1]: 7.1%
- IC50 (VEGFR2): 25 nM
- IC50 (VEGFR1): 380 nM
- IC50 (FGFR1): 148 nM
- IC50 (Flk1): 89 nM

SMILES: CO[C@H]1C[C@@H]2CC[C@@H](C)[C@@](O)(O2)C(=O)C(=O)N2CCCC[C@H]2C(=O)O[C@H]([C@@H](C)C[C@@H]2CC[C@@H](OCCO)[C@H](OC)C2)CC(=O)[C@H](C)/C=C(\C)[C@H](O)[C@@H](OC)C(=O)[C@H](C)C[C@H](C)/C=C/C=C/C=C/1C [Everolimus (RAD001)]
- inhibition of growth at 5 µM [1]: 14.5%
- IC50 (FKBP12): 1.6 to 2.4 nM

SMILES: CC(C)(C)c1cc(C(C)(C)C)c(NC(=O)c2c[nH]c3ccccc3c2=O)cc1O [Ivacaftor (VX-770)]
- inhibition of growth at 5 µM [1]: 0.6%
- EC50 (F508del-CFTR): 25 nM
- EC50 (G551D-CFTR): 100 nM

SMILES: Nc1nc(=O)c2c(CCc3ccc(C(=O)N[C@H](CCC(=O)O)C(=O)O)cc3)c[nH]c2[nH]1 [Pemetrexed (Alimta)]
- Ki (DHFR): 7.2 nM
- viability (in vitro): 84.6%

SMILES: Cl.O=C(Nc1ccccc1-c1cn2c(CN3CCNCC3)csc2n1)c1cnc2ccccc2n1 [SRT1720]
- inhibition of growth at 5 µM [1]: 18.3%
- EC1.5 SIRT1 activation (SIRT1): SRT1720 is a selective SIRT1 activator with EC1.5 of 0.16 μM.

SMILES: CC(C)c1ccccc1Cc1cc(C(=O)Nc2ccc(S(=O)(=O)c3ccccc3C(C)(C)C)cc2)c(O)c(O)c1O [TW-37]
- Ki (Bcl-2): 290 nM
- inhibition of growth at 5 µM [1]: 58.9%
- Ki (Bcl-xL): 1110 nM
- Ki (Mcl-1): 260 nM

SMILES: COc1cc2nccc(Oc3ccc(NC(=O)C4(C(=O)Nc5ccc(F)cc5)CC4)cc3)c2cc1OC [XL-184 (Cabozantinib)]
- IC50 (Flt1): 12 nM
- Host viability (%) mean [2]: 50.8%
- inhibition of growth at 5 µM [1]: 82.5%
- IC50 (Flt4): 6 nM

SMILES: COCCn1c2c([n+](Cc3cnccn3)c1C)C(=O)c1ccccc1C2=O [YM155]
- inhibition of growth at 5 µM [1]: 15.4%
- IC50 (survivin): 0.54 nM
